Paper PMC8185805, “An improved method for the incorporation of fluoromethyl ketones into solid phase peptide synthesis techniques” (RSC Advances, 2021)
*: point of attachment. Cbz = O=C(OCc1ccccc1)*; CH2F = FC*

System: 3CL^pro of SARS-CoV-2
Settings: pH 7.6

Cbz-SAVLD(OMe)-CH2F [compound 15]
3CL^pro protease activity in the presence of PFMK inhibitor (gel-based cleavage of FLAG-His-SAVLQ-nsp9): completely abolished
